# US20140303092A1 (CHIMERIX, INC., priority 2011, published 2014)
# Test: Study HDP-CDV-201: safety and tolerability (adverse events, laboratory abnormalities, discontinuations)
# Format: in vivo, human (adult allogeneic HSCT recipients)
# Settings: Cohort 4A, 100 mg BIW
# Experimental: Clinical Studies of HDP-CDV were performed and described in detail in the following Examples. For example, HDP-CDV-201 is a placebo-controlled, dose-escalating trial in HSCT CMV (R+) recipients, evaluating the ability of HDP-CDV to prevent or control CMV infection was carried out. Five cohorts were established in which participants or subjects received either placebo or the HDP-CDV orally, in doses ranging from 40 mg weekly (QW) to 200 mg twice weekly (BIW). Subjects who were post-HSCT were enrolled at the time of engraftment and randomized to HDP-CDV or placebo (3 to 1 ratio) and received blinded therapy until approximately 100 day post-transplantation. HDP-CDV doses were 40 mg QW, 100 mg QW, 200 mg QW, 200 mg BIW and 100 mg BIW. Escalation to the next dose was decided by the data monitoring committee after review of the safety data from the previous Cohort. Subjects who developed CMV disease or CMV infection requiring pre-emptive therapy with local standard of care were discontinued from blinded therapy and followed for 4 weeks. Subjects who completed treatment with blinded therapy were followed for 8 weeks post-therapy.
# Data from Study HDP-CDV-201 also provided characterization of the safety and tolerability profile of HDP-CDV when administered for the prevention or control of CMV infection in high risk (R^+) post-HSCT adult subjects.
# The Safety population (SAFETY) included all randomized subjects who took at least one dose of study treatment. This population was used to summarize safety outcomes based on the treatment actually received, in cases where a subject was treated contrary to the randomization schedule.
# The safety and tolerability profile of HDP-CDV, including subject demographics and Baseline characteristics; the AE profile; and laboratory abnormalities of interest were analyzed in the cohorts followed in this investigation.
# Subjects completing the treatment period received a full course of study medication; those completing the entire study attended visits through 8 weeks of follow up. Subjects who discontinued treatment may have done so for protocol specified reasons (e.g. development of clinically significant CMV infection requiring preemptive treatment with excluded anti-CMV medications) or for other reasons (e.g., withdrawal, adverse events, loss to follow-up). The disposition of subjects in Study HDP-CDV-201 during the double-blind, placebo-controlled treatment period (through Week 11) is listed by dosing Cohort in TABLE 23.
# Adverse events were examined by severity to ensure that all safety signals were identified in this study population. Because of the frequency of events in HSCT recipients, particular attention was given to evaluation of Grade 3 […], 4 (severe), and 5 (fatal) adverse events.
# Only those preferred terms for which at least one Grade 3 or higher event was experienced in any treatment group are listed. Cytomegalovirus-related AEs are excluded from this analysis.
# HDP-CDV is a lipid conjugate of CDV. Because CDV is known to have adverse effects on renal function and bone marrow, decreased GFR and persistent neutropenia were identified as AEs of special interest. Key renal and hematological (TABLE 30) laboratory parameters were measured and listed below by Study HDP-CDV-201 treatment groups. TABLE 30 includes abnormal levels of serum creatinine, neutrophils, platelets, WBCs, and hemoglobin and includes data at Screening and during the treatment period.
# A common metric for unit based dosing of medications is by weight (mg/kg). When the distribution of weights was examined for all subjects participating in the study, the median was 78 kg and the lower 25th percentile weight was approximately 65 kg, which translates to a cut-off of ˜3 mg/kg for a 200 mg total weekly dose. Based upon this approach, a cut-off of 3 mg/kg was used to assess the frequency of diarrhea and associated GI AEs reported for the subjects in Cohorts 3 or 4a (TABLE 40).
smiles,measurement,value
CCCCCCCCCCCCCCCCOCCCOP(=O)(O)COC(CO)Cn1ccc(N)nc1=O (centres unmarked) [HDP-CDV],"ALT (Screening) >3 × ULN-5 × ULN, subjects",1 (2.2%)
same,"ALT (Screening) >5 × ULN-10 × ULN, subjects",1 (2.2%)
same,"ALT (Screening) >10 × ULN-20 × ULN, subjects",1 (2.2%)
same,"ALT (Screening) >20 × ULN, subjects",0
same,"ALT (any time during therapy) >3 × ULN-5 × ULN, subjects",10 (20.0%)
same,"ALT (any time during therapy) >5 × ULN-10 × ULN, subjects",4 (8.0%)
same,"ALT (any time during therapy) >10 × ULN-20 × ULN, subjects",1 (2.0%)
same,"ALT (any time during therapy) >20 × ULN, subjects",1 (2.0%)
same,"AST (Screening) >3 × ULN-5 × ULN, subjects",1 (2.2%)
same,"AST (Screening) >5 × ULN-10 × ULN, subjects",1 (2.2%)
same,"AST (Screening) >10 × ULN-20 × ULN, subjects",1 (2.2%)
same,"AST (Screening) >20 × ULN, subjects",0
same,"AST (any time during therapy) >3 × ULN-5 × ULN, subjects",2 (4.0%)
same,"AST (any time during therapy) >5 × ULN-10 × ULN, subjects",3 (6.0%)
same,"AST (any time during therapy) >10 × ULN-20 × ULN, subjects",0
same,"AST (any time during therapy) >20 × ULN, subjects",0
same,"Alkaline Phosphatase (Screening) >2.5-5.0 × ULN, subjects",0
same,"Alkaline Phosphatase (Screening) >5.0-20.0 × ULN, subjects",0
same,"Alkaline Phosphatase (Screening) >20.0 × ULN, subjects",0
same,"Alkaline Phosphatase (Screening) >ULN-[…] ULN, subjects",8 (17.4%)
same,"Alkaline Phosphatase (any time during therapy) >2.5-5.0 × ULN, subjects",3 (6.0%)
same,"Alkaline Phosphatase (any time during therapy) >5.0-20.0 × ULN, subjects",0
same,"Alkaline Phosphatase (any time during therapy) >20.0 × ULN, subjects",0
same,"Alkaline Phosphatase (any time during therapy) >ULN-[…] ULN, subjects",11 (22.0%)
same,"GI AE Leading to Study Drug Discontinuation: Abdominal pain, subjects",1 (2.0%)
same,"GI AE Leading to Study Drug Discontinuation: Diarrhoea, subjects",2 (4.0%)
same,"GI AE Leading to Study Drug Discontinuation: Dyspepsia, subjects",0
same,"GI AE Leading to Study Drug Discontinuation: Nausea, subjects",1 (2.0%)
same,"GI AE Leading to Study Drug Discontinuation: Vomiting, subjects",1 (2.0%)
same,GI AEs Leading to Study Drug Discontinuation: Total subjects discontinued,5 (10.0%)
same,"Gastrointestinal AE Abdominal discomfort, subjects",4 (8.0%)
same,"Gastrointestinal AE Abdominal distention, subjects",0
same,"Gastrointestinal AE Abdominal pain upper, subjects",2 (4.0%)
same,"Gastrointestinal AE Abdominal pain, subjects",13 (26.0%)
same,"Gastrointestinal AE Constipation, subjects",2 (4.0%)
same,"Gastrointestinal AE Diarrhoea, subjects",26 (52.0%)
same,"Gastrointestinal AE Diverticulum intestinal haemorragic, subjects",0
same,"Gastrointestinal AE Dyspepsia, subjects",4 (8.0%)
same,"Gastrointestinal AE Dysphagia, subjects",0
same,"Gastrointestinal AE Epigastric discomfort, subjects",0
same,"Gastrointestinal AE Flatulence, subjects",3 (6.0%)
same,"Gastrointestinal AE GERD, subjects",0
same,"Gastrointestinal AE Gastritis, subjects",0
same,"Gastrointestinal AE Haematochezia, subjects",0
same,"Gastrointestinal AE Haemorroids, subjects",1 (2.0%)
same,"Gastrointestinal AE Large intestinal ulcer, subjects",0
same,"Gastrointestinal AE Nausea, subjects",17 (34.0%)
same,"Gastrointestinal AE Odynophagia, subjects",0
same,"Gastrointestinal AE Oesophagitis, subjects",0
same,"Gastrointestinal AE Retching, subjects",2 (4.0%)
same,"Gastrointestinal AE Vomiting, subjects",22 (44.0%)
same,"Hepatobiliary clinical AE Cholelithiasis, subjects",0
same,"Hepatobiliary clinical AE Hepatomegaly, subjects",0
same,"Hepatobiliary clinical AE Hyperbilirubinaemia, subjects",3 (6.0%)
same,"Hepatobiliary clinical AE Jaundice, subjects",0
same,"Hepatobiliary clinical AE Liver injury, subjects",0
